In patent US20060079497A1, “Lavendamycin analogues and methods of synthesizing and using lavendamycin analogues” (Ball State University, priority 2004, published 2006):
Values joined by “and” are separate entries in the source; they are usually repeats but may differ in a detail not shown here. Equal values may be shown once. Read-outs that look alike come from different tables or passages of the source.

Tests used:
[1] = Cytotoxicity assay (MTT), normal murine spleen cells stimulated with concanavalin A; format: cell-based; conditions: normal mouse spleen stimulated with concanavalin A inhibited by 50%, read-out: Mean CC50 (Normal Mouse Spleen) ± SEM (no. of expts)
Procedure: Normal murine spleen cells were washed in HBSS, cultured at 2.5×10^6 or 5×10^6 cells per mL in RPMI 1640 (with Hepes) complete medium with 2 mM-L-glutamine, 1 mM sodium pyruvate, 0.05 mM β-mercaptoethanol, penicillin, streptomycin, and amphotericin B with 10% fetal calf serum and Concanavalin A (ConA) at 2.5 μg/mL in a 96-well microtiter plate. A range of diluted analogs were added to triplicate culture wells and the cells were incubated at 37° C. in 5% CO2. Wells containing cells, media and ConA were used as controls. Forty-eight hours post incubation, 20 μL of the vital dye MTT (3-[4,5-Dimethylthiazol-2-yl]-2,5-diphenyltetrazolium bromide; thiazolyl blue) at 5 mg/mL was added to each well and the cultures re-incubated for 4-6 hours. Following centrifugation, the supernatants were decanted and the stained cells were resuspended in 100 μL of 0.4% HCl acidified isopropanol. The optical densities of each well were read at 600 nm using a Cambridge Technologies series 700 microplate reader. The human lymphocytic cell lines CCRF-CEM (ATCC: HTB 176) and H-9 (ATCC: CCL 119) were subcultured from recently cultured cells grown in complete RPMI 1640 medium as described above but without the β-mercaptoethanol and ConA at 6.25×10^5 and 2×10^6 per mL in a 96 well culture plate. These cell numbers represented log phase and early stationary phase of the freshly cultured cells. As these cell lines rapidly reproduce without mitogenic stimulation, Con A was not used. A range of analogues or media alone was added in triplicate to the cultures and the cultures incubated, pulsed with MTT, harvested and their growth estimated as described above for the murine cultures. The CC50 or the concentration of drug which inhibited cell growth as estimated by MTT formazan production to 50% of that of untreated control cells was determined by linear interpolation for each lavendamycin analog.

[2] = target: T1, HIV-RT (Human immunodeficiency virus type 1 group M subtype B, UniProt P04585); test: Checkerboard combination of lavendamycin analogs with AZT-triphosphate in HIV-RT enzyme assay (Chou and Talalay); format: biochemical
T1 construct: 1 unit/mL of HIV-RT (Worthington Biochemical Corp., Freehold, N.J.); purchased Worthington Biochemical Corp., Freehold, N.J
Procedure: The results were analyzed by the method of Chou and Talalay based on the median-effect principle and represented by combination indices (CI) determined for each of the two drug combinations (e.g., see: Chou, T. C.; Talalay, P. “Quantitative Analysis of Dose-Effect Relationships: The Combined Effects of Multiple Drugs or Enzyme Inhibitors,” Adv. Enzyme Regul., 1984, 22, 27-65; and Chou, J.; Chou, T. C. “Dose-Effect Analysis with Microcomputers: Quantitation of ED50, LD50, Synergism, Antagonism, Low-Dose Risk, Receptor-Ligand Binding and Enzyme Kinetics,” In: A computer Software for IBM-PC and Manual, Cambridge, UK, Elsevier-Biosoft, 1987). This method involves the plotting of dose-effect curves for each agent and for each of the different combinations of the agents. The slope of the median-effect plot, which signifies the shape of the dose-effect curve, and the x intercept of the plot, which signifies the potency of each compound alone and each combination, were then used for a computerized calculation of a combination index.
The assay procedure described below is adapted from Okada et al. (Okada, H.; Mukai, H.; Inouye, Y; Nakamura, S. “Biological Properties of Streptonigrin Derivatives II. Inhibition of Reverse Transcriptase Activity,” J. Antibiot., 1986, 39, 306-308). The lavendamycin analogs were initially dissolved in DMSO at a concentration of 1 mg/mL. Occasionally, mild sonication and heat were used to dissolve the less soluble compounds. The dissolved analogs were then serially diluted in distilled water to achieve concentrations in the final reaction mixture ranging from 0.5-15 μM. In addition to the lavendamycin analogs, the final reaction mixture contained 100 mM Tris-HCl (pH 8.0), 5 mM MgCl2, 5 mM dithiothreitol, 60 mM NaCl, 0.2 mM [^3H] thymidine triphosphate(5 μCi well), 4 μg/mL poly (rA)-oligo(dT)12-18 (Amersham Pharmacia Biotech, Piscataway, N.J.) and 1 unit/mL of HIV-RT (Worthington Biochemical Corp., Freehold, N.J.) in a total volume of 300 μL. For each assay, the reaction mixture containing 8× buffer, double distilled H2O, ^3HTTP, template-primer and HIV-RT was pre-mixed in a 15-mL sterile tube in quantities required for the particular experiment. After adding the enzyme, the reaction mixture was mixed and kept on ice. The inhibitors, either AZT(Moravek Biochemicals, Brea, Calif.), analogs or both were added to appropriate wells in a 24 well microtiter plate and ddH2O was added to each well to bring the volume of all test wells to 100 μL. Two hundred μL of the chilled reaction mixture was then added to each of the test wells, mixed, and incubated for 1 hr at 37° C. Several control wells with no inhibitors were included on each test plate. After stopping the reactions with 25 μL 0.1 M EDTA, triplicate samples of 15 μL from each test well were spotted on DE81 ion exchange filter paper squares (Whatman Paper, Maidstone, England). After drying, each filter was washed for 10 minutes three times with 5% TCA-NHPO4, three times with 0.6M NaCl-[…] Na Citrate, one time with ddH2O and one time with 95% ethanol. After drying the individual filter papers were added to 5 mL Scintiverse E (Fisher Scientific, Chicago, Ill.) scintillation fluid and the amount of 3H-TTP uptake measured as counts per minute on a Beckman liquid scintillation counter. […] The results were then analyzed using Calcusyn, a windows software program for dose effect analysis designed by T. -C. Chou and M. P. Hayball and published by Biosoft® (UK).

[3] = normal murine spleen cells stimulated with concanavalin A
[4] = analogue 0.25 μM + AZT 0.007 μM, Trial 1
[5] = analogue 0.25 μM + AZT 0.007 μM, Trial 2
[6] = analogue 0.25 μM + AZT 0.01 μM, Trial 1
[7] = analogue 0.25 μM + AZT 0.01 μM, Trial 2
[8] = analogue 0.25 μM + AZT 0.02 μM, Trial 1
[9] = analogue 0.25 μM + AZT 0.02 μM, Trial 2
[10] = analogue 0.5 μM + AZT 0.007 μM, Trial 1
[11] = analogue 0.5 μM + AZT 0.007 μM, Trial 2
[12] = analogue 0.5 μM + AZT 0.01 μM, Trial 1
[13] = analogue 0.5 μM + AZT 0.01 μM, Trial 2
[14] = analogue 0.5 μM + AZT 0.02 μM, Trial 1
[15] = analogue 0.5 μM + AZT 0.02 μM, Trial 2
[16] = analogue 0.75 μM + AZT 0.01 μM, Trial 1
[17] = analogue 0.75 μM + AZT 0.01 μM, Trial 2
[18] = analogue 0.75 μM + AZT 0.02 μM, Trial 1
[19] = analogue 0.75 μM + AZT 0.02 μM, Trial 2
[20] = analogue 1.5 μM + AZT 0.007 μM, Trial 1
[21] = analogue 1.5 μM + AZT 0.007 μM, Trial 2
[22] = analogue 1.5 μM + AZT 0.01 μM, Trial 1
[23] = analogue 1.5 μM + AZT 0.01 μM, Trial 2
[24] = analogue 1.5 μM + AZT 0.02 μM, Trial 1
[25] = analogue 1.5 μM + AZT 0.02 μM, Trial 2
[26] = analogue 0.75 μM + AZT 0.007 μM, Trial 1
[27] = analogue 0.75 μM + AZT 0.007 μM, Trial 2

COC(=O)c1nc(-c2ccc3c(n2)C(=O)C(NC(C)=O)=CC3=O)c2[nH]c3ccccc3c2c1C [Compound 11, 7-acetyllavendamycin methyl ester]
CC50 at 48 h [1, 3]: 62 ± 5 µM
Combination index [2]: 1.00 and 1.30
Combination index [2, 4]: 0.57
Combination index [2, 5]: 0.48
Combination index [2, 6]: 0.94
Combination index [2, 7]: 0.89
Combination index [2, 8]: 0.90
Combination index [2, 9]: 0.68
Combination index [2, 10]: 0.81
Combination index [2, 11]: 0.71
Combination index [2, 12]: 0.84
Combination index [2, 13]: 0.76
Combination index [2, 14]: 0.72
Combination index [2, 15]: 0.84
Combination index [2, 16]: 1.20
Combination index [2, 17]: 1.08
Combination index [2, 18]: 0.94
Combination index [2, 19]: 0.84
Combination index [2, 20]: 1.40
Combination index [2, 21]: 1.23
Combination index [2, 22]: 1.40
Combination index [2, 23]: 1.12
Combination index [2, 24]: 1.17
Combination index [2, 25]: 1.08

CCCCOC(=O)c1cc2c([nH]c3ccccc32)c(-c2ccc3c(n2)C(=O)C(NC(=O)CCC)=CC3=O)n1 [Compound 12, 7-N-n-Butyryidemethyllavendamycin n-Butyl Ester]
CC50 at 48 h [1]: 81 ± 17 µM
Combination index [2]: 1.30 and 1.60
Combination index [2, 4]: 0.82
Combination index [2, 5]: 0.83
Combination index [2, 6]: 0.58
Combination index [2, 7]: 0.58
Combination index [2, 8]: 0.59
Combination index [2, 9]: 0.50
Combination index [2, 10]: 0.88
Combination index [2, 11]: 0.71
Combination index [2, 12]: 0.76
Combination index [2, 13]: 0.76
Combination index [2, 14]: 0.85
Combination index [2, 15]: 0.93
Combination index [2, 16]: 0.86
Combination index [2, 17]: 0.99
Combination index [2, 18]: 1.00
Combination index [2, 19]: 0.92
Combination index [2, 20]: 1.30
Combination index [2, 21]: 1.20
Combination index [2, 22]: 0.81
Combination index [2, 23]: 0.91
Combination index [2, 24]: 1.10
Combination index [2, 25]: 0.96

CC(=O)NC1=CC(=O)c2ccc(-c3nc(C(N)=O)cc4c3[nH]c3ccccc34)nc2C1=O [Compound 16, 7-N-Acetyldemethyllavendamycin Amide]
CC50 at 48 h [1, 3]: 50 ± 7 µM
Combination index [2, 4]: 0.82
Combination index [2, 5]: 0.80
Combination index [2, 6]: 0.85
Combination index [2, 7]: 1.18
Combination index [2, 8]: 0.67
Combination index [2, 9]: 0.75
Combination index [2, 10]: 0.54
Combination index [2, 11]: 0.65
Combination index [2, 12]: 0.87
Combination index [2, 13]: 0.70
Combination index [2, 14]: 0.58
Combination index [2, 15]: 0.60
Combination index [2, 26]: 1.50
Combination index [2, 27]: 1.61
Combination index [2, 16]: 1.0
Combination index [2, 17]: 1.20
Combination index [2, 18]: 1.10
Combination index [2, 19]: 1.10
Combination index [2, 20]: 0.66
Combination index [2, 21]: 0.67
Combination index [2, 22]: 1.0
Combination index [2, 23]: 1.0
Combination index [2, 24]: 1.00
Combination index [2, 25]: 1.00

CC(=O)NC1=CC(=O)c2ccc(-c3nc(C(=O)O)cc4c3[nH]c3ccccc34)nc2C1=O [Compound 18, 7-N-Acetyldemethyllavendamycin]
CC50 at 48 h [1, 3]: 47 ± 8.5 µM
Combination index [2]: 0.66
Combination index [2, 4]: 0.39
Combination index [2, 5]: 0.37
Combination index [2, 6]: 0.44
Combination index [2, 7]: 0.45
Combination index [2, 8]: 0.59
Combination index [2, 9]: 0.60
Combination index [2, 10]: 0.40
Combination index [2, 11]: 0.42
Combination index [2, 12]: 0.51
Combination index [2, 13]: 0.50
Combination index [2, 14]: 0.97
Combination index [2, 15]: 0.98
Combination index [2, 16]: 0.59
Combination index [2, 17]: 0.57
Combination index [2, 18]: 0.95
Combination index [2, 19]: 0.97
Combination index [2, 20]: 1.00
Combination index [2, 21]: 0.94
Combination index [2, 22]: 0.90
Combination index [2, 23]: 0.82
Combination index [2, 24]: 2.00
Combination index [2, 25]: 2.20
combined effect with AZT-TP ([2]; analogue 1.5 μM together with AZT-TP 0.02 μM): antagonism

CC(=O)NC1=CC(=O)c2ccc(-c3nc(C(=O)OCCOP(=O)(O)O)cc4c3[nH]c3ccccc34)nc2C1=O [Compound 19]
CC50 at 48 h [1, 3]: 29 ± 5 µM
Combination index [2, 26]: 0.47
Combination index [2, 27]: 0.68
Combination index [2, 16]: 0.64
Combination index [2, 17]: 1.04
Combination index [2, 20]: 0.49
Combination index [2, 21]: 0.81
Combination index [2, 22]: 0.69
Combination index [2, 23]: 0.69
Combination index ([2]; analogue 3 μM + AZT 0.007 μM, Trial 1): 0.49
Combination index ([2]; analogue 3 μM + AZT 0.007 μM, Trial 2): 0.79
Combination index ([2]; analogue 3 μM + AZT 0.01 μM, Trial 1): 0.28
Combination index ([2]; analogue 3 μM + AZT 0.01 μM, Trial 2): 0.56
Combination index ([2]; analogue 6 μM + AZT 0.007 μM, Trial 1): 0.32
Combination index ([2]; analogue 6 μM + AZT 0.007 μM, Trial 2): 0.60
Combination index ([2]; analogue 6 μM + AZT 0.01 μM, Trial 1): 0.28
Combination index ([2]; analogue 6 μM + AZT 0.01 μM, Trial 2): 0.75
